From patent US20090221505A1, “COMPOSITIONS AND METHODS RELATED TO SYNCHRONOUS SELECTION OF HOMING PEPTIDES FOR MULTIPLE TISSUES BY IN VIVO PHAGE DISPLAY” (priority 2004, published 2009)
Entries after “also recorded” stand apart in the source; their conditions may differ. Where no end group is shown, it is not given here.

Tests used:
[1] = molecular target: T1, purified recombinant rabbit PRLR (Oryctolagus cuniculus, UniProt P14787); test: Panning of pancreas-homing phage on immobilized PRLR (BSA control); assay type: binding; conditions: pancreas-homing phage pool (rounds 2 and 3), single round
T1 construct: purchased Protein Laboratories Rehovot, Israel
T1 sequence (P14787 25-234 limits assumed): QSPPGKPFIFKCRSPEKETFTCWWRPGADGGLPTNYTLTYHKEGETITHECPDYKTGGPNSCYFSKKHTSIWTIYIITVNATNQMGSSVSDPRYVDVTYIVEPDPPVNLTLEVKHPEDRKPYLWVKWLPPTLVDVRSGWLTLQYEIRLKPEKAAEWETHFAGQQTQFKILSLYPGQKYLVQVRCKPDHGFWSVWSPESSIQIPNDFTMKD
Protocol: (§1) Phage-peptide binding to PRLR To identify peptides binding to PRLR, phage clones isolated from the pancreas in rounds 2 and 3 of the screening were individually amplified and pooled. For panning on immobilized PRLR, 10^9 TU of the mixed phage clones were incubated overnight at 4° C. with […] of purified recombinant rabbit PRLR (Protein Laboratories Rehovot, Israel), or BSA control, immobilized on plastic. Unbound phage were extensively washed off with PBS, and then the bound phage were recovered by infecting host K91 E. coli directly on the plate. For panning on cell surface-expressed PRLR, COS-1 cells (ATCC) were transiently transfected with pECE-PRLR as described (Wang et al, 1997) and subjected to biopanning with the amplified pancreas-isolated phage using the BRASIL protocol (Giordano et al, 2001). In each biopanning, bound phage were selected for tetracycline resistance, quantified by infecting host K91 E. coli and sequenced. […] Phage displaying forward (CRVASVLPC) (SEQ ID NO 30), reverse CPLVSAVRC(SEQ ID NO 34), and the alanine point mutants were titered in-parallel with insertless fd-tet phage and tested for binding to COS-1 cells transfected with PRLR by using the BRASIL method (Giordano et al, 2001). COS-1 cells not transfected with PRLR served as a negative control.

[2] = tested on: COS-1 cells transfected with PRLR; test: Phage binding to COS-1 cells transfected with PRLR (BRASIL); assay type: cell-based; conditions: for Isolation by biopanning on cell-surface expressed PRLR: pancreas-homing phage pool (rounds 2 and 3), single round; for Isolation by biopanning on cell-surface expressed PRLR / Binding of phage to PRLR-transfected COS-1 cells (in words): BRASIL; for Binding of phage to PRLR-transfected COS-1 cells (in words): FIG. 5A-5B
Protocol: as §1

[3] = tested on: Pancreas; test: Anti-phage immunohistochemistry after iv phage injection, pancreas; assay type: in vivo, mouse
Protocol: (§2) Immunolocalization Immunofluorescent detection of PRLR expression in COS-1 cells was performed by using anti-PRLR antibody MAI-610 (Affinity Bioreagents) diluted to 20 μg/ml and a secondary FITC-conjugated goat anti-mouse antibody F-0257 (Sigma) at 1 100 dilution. For validating phage binding and internalization into COS-1 cells transfected with PRLR, 10^9 TU of phage displaying PRLR-binding or mutant peptides were subjected to cell binding and internalization as described (Zurita et al, 2004). Immunodetection of cell-associated phage was performed with anti-fd antibody B-7786 (Sigma) at 1 500 dilution and a secondary Cy3-conjugated donkey anti-rabbit antibody 711-165-152 (Jackson) at 3 μg/ml. For phage-peptide immunolocalization in situ, 10^10 TU of iv-injected phage were let circulate for 5 min. Immunohistochemistry on formalin-fixed, paraffin-embedded mouse tissue sections was performed as described (Paqualini et al, 2001, Arap et al, 2002) by using anti-fd antibody B-7786 at 1 1,000 dilution and the LSAB+ peroxidase kit (DAKO)

[4] = tested on: COS-1 cells transfected with PRLR; test: Immunofluorescence of phage binding and internalization into COS-1 cells transfected with PRLR; assay type: cell-based; conditions: 10^9 TU phage
Protocol: as §2

[5] = tested on: skeletal muscle; test: Anti-phage immunohistochemistry after iv phage injection, skeletal muscle; assay type: in vivo, mouse
Protocol: as §2

[6] = molecular target: PRLR (prolactin receptor) expressed on the surface of COS-1 cells transfected with pECE-PRLR; test: phage binding to PRLR-transfected COS-1 cells, BRASIL
[7] = molecular target: PRLR (prolactin receptor) expressed on the surface of COS-1 cells transfected with pECE-PRLR; test: phage binding to prlR-transfected COS-1 cells

PRLR (prolactin receptor) expressed on the surface of COS-1 cells transfected with pECE-PRLR, sequence (P05710 20-610): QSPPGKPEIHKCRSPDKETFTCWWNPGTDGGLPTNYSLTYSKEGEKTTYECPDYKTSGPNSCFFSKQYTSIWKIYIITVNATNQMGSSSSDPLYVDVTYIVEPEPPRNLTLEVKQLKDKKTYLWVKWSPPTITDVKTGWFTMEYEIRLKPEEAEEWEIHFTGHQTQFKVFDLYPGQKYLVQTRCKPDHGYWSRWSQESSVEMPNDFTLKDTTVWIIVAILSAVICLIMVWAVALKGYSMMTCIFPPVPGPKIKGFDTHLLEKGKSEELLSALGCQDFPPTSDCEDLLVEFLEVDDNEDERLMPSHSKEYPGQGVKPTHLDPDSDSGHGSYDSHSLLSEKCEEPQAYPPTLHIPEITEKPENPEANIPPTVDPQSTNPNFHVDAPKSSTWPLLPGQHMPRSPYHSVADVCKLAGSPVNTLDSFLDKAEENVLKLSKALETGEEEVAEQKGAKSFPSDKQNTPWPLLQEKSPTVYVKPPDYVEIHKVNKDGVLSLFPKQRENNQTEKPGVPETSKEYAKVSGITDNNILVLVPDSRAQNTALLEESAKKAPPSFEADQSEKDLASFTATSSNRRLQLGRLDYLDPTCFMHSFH

## SGATGRA (not fully specified)
[1]
  Isolation by biopanning on in vitro immobilized PRLR: isolated by biopanning on both in vitro immobilized and cell-surface expressed PRLR
[2]
  Isolation by biopanning on cell-surface expressed PRLR: isolated by biopanning on both in vitro immobilized and cell-surface expressed PRLR

## QVHSSAY (not fully specified)
[1]
  Isolation by biopanning on in vitro immobilized PRLR: isolated by biopanning on both in vitro immobilized and cell-surface expressed PRLR
[2]
  Isolation by biopanning on cell-surface expressed PRLR: isolated by biopanning on both in vitro immobilized and cell-surface expressed PRLR

## CRVASVLPC [tested as phage clone]
[3]
  Phage localization in pancreas: localized to pancreatic blood vessels and the islets of Langerhans; also recorded: to pancreatic blood vessels and the pancreatic islet cells
[4]
  Phage binding, internalization and co-localization with PRLR-expressing cells: co-localized; also recorded: bound and internalized specifically by cells expressing PRLR
[2]
  Binding of phage to PRLR-transfected COS-1 cells (in words): Specific binding
[2]; controls: muscle-homing phage or insertless phage
  Binding of phage to COS-1 cells transfected with prlR relative to background binding by controls: five
[2]; negative control: non-transfected COS-1 cells, FIG. 5A
  Binding of phage to COS-1 cells transfected with PRLR relative to nonspecific binding to non-transfected COS-1 cells: 9 fold
[5]
  Phage localization in skeletal muscle: but not to skeletal muscle

## CYAIGSFDC (phage-displayed) [control muscle-homing phage clone displaying …]
[3]
  Phage localization in pancreas: but not in the pancreas
[5]
  Phage localization in skeletal muscle: found predominantly in the vasculature of skeletal muscle; also recorded: found predominantly in the vasculature of the skeletal muscle

## SGPTGRA (not fully specified)
[1]
  Isolation by biopanning on in vitro immobilized PRLR: isolated by biopanning on both in vitro immobilized and cell-surface expressed PRLR
[2]
  Isolation by biopanning on cell-surface expressed PRLR: isolated by biopanning on both in vitro immobilized and cell-surface expressed PRLR

## LPTLSLN (not fully specified)
[1]
  Isolation by biopanning on in vitro immobilized PRLR: isolated by biopanning on both in vitro immobilized and cell-surface expressed PRLR
[2]
  Isolation by biopanning on cell-surface expressed PRLR: isolated by biopanning on both in vitro immobilized and cell-surface expressed PRLR

## VFSDYKR (not fully specified)
[1]
  Isolation by biopanning on in vitro immobilized PRLR: isolated by biopanning on both in vitro immobilized and cell-surface expressed PRLR
[2]
  Isolation by biopanning on cell-surface expressed PRLR: isolated by biopanning on both in vitro immobilized and cell-surface expressed PRLR

## CPLVSAVRC
[4]
  Phage binding, internalization and co-localization with PRLR-expressing cells: bound and internalized specifically by cells expressing PRLR
[2]
  Binding of phage to PRLR-transfected COS-1 cells (in words): did not significantly decrease its binding to PRLR

B1: …-phage (phage displaying the … motif, SEQ ID NO 30) (peptide, part only; not given: phage coat protein, part only)
peptide, part: CRVASVLPC
modifications: not fully specified (bridges); cysteine pairing not given here; also: displayed on filamentous phage (fUSE5)
[6]
  fold binding over non-transfected COS-1 cells: 9 fold
[7]
  fold binding over control phage (muscle-homing or insertless): 5 fold
